From US20210214401A1, “MANUFACTURING METHOD OF NANODISC COMPRISING AN OLFACTORY RECEPTOR PROTEIN AND NANODISC COMPRISING AN OLFACTORY RECEPTOR PROTEIN MANUFACTURED BY THE SAME” (SEOUL NATIONAL UNIVERSITY R&DB FOUNDATION, priority 2017, published 2021)

What was measured:
TAAR13c = molecular target: T1, TAAR13c (Danio rerio, UniProt Q5QNP2); assay: Dual-Glo Luciferase assay, TAAR13c-expressing HEK-293 cells; format: cell-based, zebrafish (Danio rerio)
T1 construct: expressed in transfected cells; host or cells: HEK-293
T1 sequence (Q5QNP2 1-341): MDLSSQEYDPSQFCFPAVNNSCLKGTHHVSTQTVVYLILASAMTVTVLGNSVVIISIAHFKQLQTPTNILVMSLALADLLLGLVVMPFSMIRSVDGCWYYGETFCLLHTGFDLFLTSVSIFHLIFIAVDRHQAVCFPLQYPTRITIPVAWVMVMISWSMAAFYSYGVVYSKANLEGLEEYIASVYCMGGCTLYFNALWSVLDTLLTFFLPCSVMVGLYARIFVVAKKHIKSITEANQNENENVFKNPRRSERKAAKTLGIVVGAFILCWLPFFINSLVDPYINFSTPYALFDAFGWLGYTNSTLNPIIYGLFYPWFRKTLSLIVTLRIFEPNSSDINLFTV
Method: Human embryonic kidney (HEK)-293 cells were cultured in Dulbecco's Modified Eagles Medium (DMEM) (HyClone, USA) containing 1% penicillin, 1% streptomycin (Gibco, USA) and 10% Fetal Bovine Serum (FBS)(Gibco, USA), under the conditions of 37° C. and 5% C02. Transfection was performed by the following method using Lipofectamine® 3000. Specifically, the cells were transfected with a DNA mixture containing TAAR13c, pCRE-Luc, pSV40-RL, Gαolf, and Receptor-transporting protein 1 short (RTP1S) using Lipofectamine® 3000. The characteristics against cadaverine were confirmed using the TAAR13c produced in Example 4 by the Dual-Glo Luciferase assay system. Specifically, the transfected cells were cultured in DMEM medium (50 μL) for 30 minutes, and an odorant (25 μL) designed to the desired concentration was added thereto, and cultured for 4 hours. Then, the Dual-Glo Luciferase reagent (20 μL) was added thereto, cultured at room temperature for 10 minutes, and the firefly luciferase luminescence was measured using the luminescence plate reader. Then, the Dual-Glo Stop-n-Glo reagent (20 μL) was added to the measured sample, and the mixture was cultured at room temperature for 10 minutes, and the Renilla luciferase luminescence was measured. The measured data was analyzed using the following formula. […]

[1] = tested on: HEK-293 cells transfected with a random vector (MocK); assay: Dual-Glo Luciferase assay, cells transfected with a random vector (MocK); format: cell-based, Human; details: Comparative Example, FIG. 5
[2] = molecular target: T2, TAAR13c-embedded nanodiscs (T13NDs) (Danio rerio, UniProt Q5QNP2); assay: Real-time intrinsic tryptophan fluorescence of T13ND; format: binding, zebrafish (Danio rerio); details: excitation 290 nm; emission 340 nm; FIG. 11
T2 construct: His tag (from pET-DEST42) (C); made in house; host or cells: E. coli BL21 (DE3)
T2 sequence (Q5QNP2 1-341): T1 sequence (Q5QNP2 1-341)
Method: The intrinsic fluorescence of T13NDs was measured real time using the LS 55 luminescence spectrometer (Perkin Elmer, USA) (excitation 290 nm; emission 340 nm). The real-time measurement of intrinsic fluorescence of TAAR13c was measured at various amine concentrations of 1 mM to 10 mM.

Compound: NCCCCCN [CV, cadaverine]
- selectivity of TAAR13c response among various amines (cell-based) (TAAR13c; FIG. 6): showed a response only against CV
- response of TAAR13c-expressing cells to CV (normalised CRE/Renilla luciferase) (TAAR13c; concentration-dependent treatment of CV, 4 hours, FIG. 5): significant response
- response of Mock-transfected cells to CV (normalised CRE/Renilla luciferase) [1]: did not show any significant response
- real-time tryptophan fluorescence of T13ND with increasing concentration of CV [2]: T13ND has an affinity for CV
